Like-named read-outs stand apart in the source and are kept apart here. Starred links: 1 amine or outer side, 2 acyl side, 3 side chain; linkers in the order of their positions; H or OH if unused. Non-standard residues stand in square brackets, D forms with d. Residues, ends and D or L forms follow the SMILES beside them. *: point of attachment. Phe(4-NO2) = N[C@@H](Cc1ccc([N+](=O)[O-])cc1)C(=O)O; Benzenesulfonyl(4-OMe) = COc1ccc(S(=O)(=O)*)cc1; Phe(3-F) = N[C@@H](Cc1cccc(F)c1)C(=O)O; Phe(4-F) = N[C@@H](Cc1ccc(F)cc1)C(=O)O; 1Nal = N[C@@H](Cc1cccc2ccccc12)C(=O)O; NMeE = CN[C@@H](CCC(=O)O)C(=O)O; pS = N[C@@H](COP(=O)(O)O)C(=O)O; X4 = O=S(=O)(c1ccc(Cl)cc1Cl)*; Suc = O=C(CCC(=O)[*:2])[*:1]; Tos = Cc1ccc(S(=O)(=O)*)cc1
What was measured:
βTrCP [1] = molecular target: βTrCP (Homo sapiens, UniProt Q9Y297); assay: Fluorescence polarisation (FP) binding assay with fluorescein-tagged IκB peptide
Target sequence in this assay (P63208 whole entry partner, one chain of several): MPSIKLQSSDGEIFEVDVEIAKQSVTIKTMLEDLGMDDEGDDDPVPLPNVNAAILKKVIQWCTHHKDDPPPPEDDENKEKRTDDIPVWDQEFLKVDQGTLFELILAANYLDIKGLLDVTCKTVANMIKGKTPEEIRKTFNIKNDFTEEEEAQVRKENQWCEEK

Skp2 = Skp2 (Homo sapiens, UniProt Q13309); assay: Selectivity assay vs other E3s: Skp2; assay type: biochemical; conditions: for inhibition at 100 µM: value in brackets, read-out: % Inhibition Skp2 @ (100 μM); for inhibition at 10 µM: read-out: % Inhibition Skp2 @ 10 μM
Experimental: (§1) βTrCP Ubiquitination Assay and Selectivity Assays
(§2) Master mixes were prepared in a 50 mM Herpes buffer at pH 7.5, in 75 mM NaCl and 1 mM DTT without Mg or ATP and peptides were added to a final concentration of 100 μM. Reactions were incubated at room temperature for 30 minutes and then Mg/ATP was added to the mix. Reactions were further incubated for an additional 60 minutes and then stopped by adding SDS gel loading buffer and boiled for 5 minutes. Reactions were run on SDS-PAGE (10%) and transferred to nitrocellulose membranes and probed with HRP-Streptavidin.
(§3) Candidate compounds were tested for inhibition of Fbw7 and Skp2 as described above.

FBW7/Skp1 = FBW7/Skp1 (Homo sapiens, UniProt Q969H0); assay: Selectivity assay vs other E3s: Fbw7; assay type: biochemical; conditions: for inhibition at 100 µM: value in brackets, read-out: % Inhibition Fbw7 @ (100 μM); for inhibition at 10 µM: read-out: % Inhibition Fbw7 @ 10 μM
Experimental: as §1, §2
FBW7 selectivity assays were performed in the same manner except using FBW7/Skp1 as E3 component and cyclin E as the substrate. Blots were probed using anti-cyclin E antibody.
as §3

β-TrCP1/Skp1 = β-TrCP1/Skp1 (Homo sapiens, UniProt Q9Y297); assay: βTrCP ubiquitination assay (Ub assay); assay type: biochemical; conditions: for Ub Assay 10 μM: 10 μM compound; for Ub Assay 100 μM: 100 μM compound
Experimental: as §1
0.5 μM Peptide substrate (biotin)
as §2
Candidate compounds were tested in duplicate at both 10 and 100 μM against the E3 ligase cascades βTrCP(IκBα) and βTrCP(β-catenin). The E3 assays were carried out according to the component concentrations detailed in Table 9. In each case the E2 was HA,6His-UbcH3-(hu,FL), the E1 was 6His-UBE1-(hu,FL) and the ubiquitin (Sigma U6253) was biotinylated at a 5:1 ratio. Substrate phosphorylation was performed in the absence of compound; consequently any observed signal modulation should not reflect inhibition of the up-stream kinase reaction. All other steps (E1, E2 and substrate ubiquitination) were carried out in the presence of compound. The stopped reaction mix (10 μl) was added to an ECL plate loaded with anti c-Myc ( 1/500 Dilution, Millipore 05-724) and blocked with 5% BSA. Binding was allowed to proceed for 1 hour at RT before a wash step (3 40 μl PBST washes). Detection was achieved by binding SA-Ru TAG at 1 μg/ml (1 hour @ RT, 3 40 μl PBST washes) before reading on an MSD Sector Imager 6000.
Assays were performed as described above

βTrCP [2] = molecular target: T1, βTrCP (Homo sapiens, UniProt Q9Y297); assay: Biotin pull down assay with biotinylated IκB peptide; assay type: binding; conditions: for Biotin Pulldown Assay 10 μM: 10 μM compound; for Biotin Pulldown Assay 100 μM: 100 μM compound
T1 sequence (Q9Y297 1-605): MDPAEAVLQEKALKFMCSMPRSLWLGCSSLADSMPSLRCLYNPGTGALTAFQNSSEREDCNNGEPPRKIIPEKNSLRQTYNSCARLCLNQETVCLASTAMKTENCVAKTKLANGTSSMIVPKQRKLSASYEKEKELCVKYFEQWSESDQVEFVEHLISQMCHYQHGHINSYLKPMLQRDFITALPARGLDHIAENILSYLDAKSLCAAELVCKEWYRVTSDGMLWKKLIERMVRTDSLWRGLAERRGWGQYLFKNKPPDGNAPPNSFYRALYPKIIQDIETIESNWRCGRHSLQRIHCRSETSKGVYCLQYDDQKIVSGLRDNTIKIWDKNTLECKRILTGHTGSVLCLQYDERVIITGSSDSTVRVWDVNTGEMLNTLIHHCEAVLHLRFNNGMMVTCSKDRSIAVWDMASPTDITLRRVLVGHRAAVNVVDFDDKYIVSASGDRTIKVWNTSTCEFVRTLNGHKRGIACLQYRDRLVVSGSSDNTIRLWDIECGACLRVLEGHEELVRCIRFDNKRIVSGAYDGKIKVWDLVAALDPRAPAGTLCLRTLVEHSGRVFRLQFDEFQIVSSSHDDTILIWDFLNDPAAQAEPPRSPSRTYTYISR

[3] = Table 11, with spread, read-out: FP IC50/μM
[4] = Tables 1, 3, 7, 8, 10 nM fluorescein-tagged IκB peptide, read-out: FP Assay IC50/μM

Sequence of Skp2 (Q13309 whole entry, species assumed): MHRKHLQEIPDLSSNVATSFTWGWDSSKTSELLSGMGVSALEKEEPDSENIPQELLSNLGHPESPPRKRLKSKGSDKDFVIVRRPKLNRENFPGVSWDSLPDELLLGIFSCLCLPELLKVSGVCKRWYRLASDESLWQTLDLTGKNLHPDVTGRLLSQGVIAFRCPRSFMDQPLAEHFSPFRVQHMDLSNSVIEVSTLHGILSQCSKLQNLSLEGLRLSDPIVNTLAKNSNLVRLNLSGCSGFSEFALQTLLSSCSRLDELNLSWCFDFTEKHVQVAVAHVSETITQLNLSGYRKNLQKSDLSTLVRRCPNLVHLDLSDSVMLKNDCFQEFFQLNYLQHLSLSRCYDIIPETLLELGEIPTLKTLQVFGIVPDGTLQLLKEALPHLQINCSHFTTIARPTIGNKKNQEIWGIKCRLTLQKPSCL
Sequence of Skp2 (P63208 whole entry partner, species assumed): as the sequence (P63208 whole entry partner, one chain of several) above
Sequence of Skp2 (Q13616 whole entry partner, species assumed): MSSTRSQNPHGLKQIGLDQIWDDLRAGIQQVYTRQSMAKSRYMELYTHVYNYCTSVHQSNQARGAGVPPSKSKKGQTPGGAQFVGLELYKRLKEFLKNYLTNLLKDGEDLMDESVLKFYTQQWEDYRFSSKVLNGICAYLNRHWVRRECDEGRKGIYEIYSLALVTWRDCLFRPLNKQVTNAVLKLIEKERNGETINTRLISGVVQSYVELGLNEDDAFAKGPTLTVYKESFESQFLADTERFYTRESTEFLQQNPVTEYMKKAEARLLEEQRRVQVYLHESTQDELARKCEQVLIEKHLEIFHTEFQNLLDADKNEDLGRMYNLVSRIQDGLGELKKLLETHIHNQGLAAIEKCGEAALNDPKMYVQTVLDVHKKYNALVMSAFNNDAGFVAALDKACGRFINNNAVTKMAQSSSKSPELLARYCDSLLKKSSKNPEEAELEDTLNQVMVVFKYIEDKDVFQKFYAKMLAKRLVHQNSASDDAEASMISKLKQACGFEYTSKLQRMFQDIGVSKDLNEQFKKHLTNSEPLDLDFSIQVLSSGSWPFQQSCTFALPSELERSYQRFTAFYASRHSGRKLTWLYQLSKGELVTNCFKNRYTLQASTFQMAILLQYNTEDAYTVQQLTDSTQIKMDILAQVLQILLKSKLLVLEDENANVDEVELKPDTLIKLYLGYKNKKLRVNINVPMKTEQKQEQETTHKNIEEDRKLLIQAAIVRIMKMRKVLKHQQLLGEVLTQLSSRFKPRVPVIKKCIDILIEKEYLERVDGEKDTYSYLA
Sequence of Skp2 (P62877 whole entry partner, species assumed): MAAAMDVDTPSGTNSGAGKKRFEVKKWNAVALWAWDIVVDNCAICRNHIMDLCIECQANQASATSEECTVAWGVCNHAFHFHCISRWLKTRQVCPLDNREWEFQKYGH
Sequence of FBW7/Skp1 (Q969H0 whole entry, species assumed): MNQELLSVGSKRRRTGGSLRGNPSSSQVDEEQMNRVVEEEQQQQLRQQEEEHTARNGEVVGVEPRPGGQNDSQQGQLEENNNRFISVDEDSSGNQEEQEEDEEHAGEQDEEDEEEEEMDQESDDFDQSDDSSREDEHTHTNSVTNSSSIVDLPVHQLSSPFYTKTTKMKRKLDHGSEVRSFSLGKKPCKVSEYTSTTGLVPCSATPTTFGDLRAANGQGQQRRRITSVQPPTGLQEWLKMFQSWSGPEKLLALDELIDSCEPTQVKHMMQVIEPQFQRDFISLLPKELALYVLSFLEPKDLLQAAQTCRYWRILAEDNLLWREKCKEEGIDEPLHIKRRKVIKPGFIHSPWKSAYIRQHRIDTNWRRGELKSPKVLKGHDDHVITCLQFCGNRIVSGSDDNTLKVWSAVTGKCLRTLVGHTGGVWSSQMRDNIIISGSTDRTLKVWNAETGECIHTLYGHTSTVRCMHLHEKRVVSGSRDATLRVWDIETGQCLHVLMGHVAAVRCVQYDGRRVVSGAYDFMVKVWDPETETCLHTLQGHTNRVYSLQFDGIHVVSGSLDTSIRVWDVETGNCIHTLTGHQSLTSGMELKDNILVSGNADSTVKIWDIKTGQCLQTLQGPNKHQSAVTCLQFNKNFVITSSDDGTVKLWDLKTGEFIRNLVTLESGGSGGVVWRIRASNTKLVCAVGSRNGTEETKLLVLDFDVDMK
Sequence of FBW7/Skp1 (P63208 whole entry partner, species assumed): as the sequence (P63208 whole entry partner, one chain of several) above
Sequence of FBW7/Skp1 (Q13616 whole entry partner, species assumed): as the sequence (Q13616 whole entry partner, species assumed) above
Sequence of FBW7/Skp1 (P62877 whole entry partner, species assumed): as the sequence (P62877 whole entry partner, species assumed) above
Sequence of β-TrCP1/Skp1 (P63208 2-163 partner limits assumed, one chain of several): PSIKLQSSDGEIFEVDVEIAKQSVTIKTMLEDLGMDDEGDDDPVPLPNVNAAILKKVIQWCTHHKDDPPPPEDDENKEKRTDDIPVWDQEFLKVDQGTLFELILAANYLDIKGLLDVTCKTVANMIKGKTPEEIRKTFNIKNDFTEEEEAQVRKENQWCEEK

SMILES	IC50 (βTrCP [1]; [4]) [µM]	IC50 (βTrCP [1]; [3]) [µM]	inhibition at 100 µM (Skp2) [%]	inhibition at 10 µM (Skp2) [%]	inhibition at 100 µM (FBW7/Skp1) [%]	inhibition at 10 µM (FBW7/Skp1) [%]	also measured
COc1ccc(S(=O)(=O)N[C@@H](CC(=O)O)C(=O)N[C@@H](CCC(=O)O)C(=O)NCC(=O)N[C@@H](Cc2cccc(F)c2)C(=O)N[C@@H](Cc2c[nH]c3ccccc23)C(=O)N[C@@H](CCC(=O)O)C(N)=O)cc1 [4-(MeO)-PhSO2-DEGF(3F)WE-NH2] ({Benzenesulfonyl(4-OMe)}-DEG[Phe(3-F)]WE-NH2)		0.027 ± 0.002	3	15	8	0	
COc1ccc(S(=O)(=O)N[C@H](CC(=O)O)C(=O)N[C@@H](CCC(=O)O)C(=O)NCC(=O)N[C@@H](Cc2cccc(F)c2)C(=O)N[C@@H](Cc2c[nH]c3ccccc23)C(=O)N[C@@H](CCC(=O)O)C(N)=O)cc1 [4-(MeO)-PhSO2-dEGF(3F)WE-NH2] ({Benzenesulfonyl(4-OMe)}-[dD]EG[Phe(3-F)]WE-NH2)		0.017 ± 0.002	12	7	18	0	
NC(=O)CC[C@H](NC(=O)CCC(=O)O)C(=O)NCC(=O)N[C@@H](Cc1ccccc1)C(=O)N[C@@H](Cc1ccccc1)C(=O)N[C@@H](CCC(=O)O)C(N)=O [Suc-QGFFE-NH2]	10						
Cc1ccc(S(=O)(=O)N[C@@H](CC(=O)O)C(=O)N[C@@H](CCC(=O)O)C(=O)NCC(=O)N[C@@H](Cc2cccc(F)c2)C(=O)N[C@@H](Cc2c[nH]c3ccccc23)C(=O)N[C@@H](CCC(=O)O)C(N)=O)cc1 [Ts-DEGF(3F)WE-NH2] (Tos-DEG[Phe(3-F)]WE-NH2)		0.018 ± 0.002	7	0	8	0	
Cc1ccc(S(=O)(=O)N[C@H](CC(=O)O)C(=O)N[C@@H](CCC(=O)O)C(=O)NCC(=O)N[C@@H](Cc2cccc(F)c2)C(=O)N[C@@H](Cc2c[nH]c3ccccc23)C(=O)N[C@@H](CCC(=O)O)C(N)=O)cc1 [Ts-dEGF(3F)WE-NH2] (Tos-[dD]EG[Phe(3-F)]WE-NH2)		0.029 ± 0.005	25	19	0	9	
NC(=O)[C@H](CCC(=O)O)NC(=O)[C@H](Cc1ccccc1)NC(=O)[C@H](Cc1ccccc1)NC(=O)CNC(=O)[C@H](CCC(=O)O)NC(=O)CCC(=O)O [UBP002, Suc-EGFFE-NH2] (Suc-EGFFE-NH2)		3.18 ± 0.357	0	14	0	0	FP Assay IC50/μM (βTrCP [1]; Tables 1, 3, 7, 8, 10 nM fluorescein-tagged IκB peptide): low μM inhibitor; Ub Assay 10 μM (β-TrCP1/Skp1): reduces/; Ub Assay 100 μM (β-TrCP1/Skp1): inhibits; Biotin Pulldown Assay 10 μM (βTrCP [2]): no effect/; Biotin Pulldown Assay 100 μM (βTrCP [2]): reduces
CC(=O)N[C@H](CC(=O)O)C(=O)N[C@@H](CCC(=O)O)C(=O)NCC(=O)N[C@@H](Cc1cccc(F)c1)C(=O)N[C@@H](Cc1cccc2ccccc12)C(=O)N[C@@H](CCC(=O)O)C(N)=O [UBP016, Ac-dEGF(3F)1NalE-NH2] (Ac-[dD]EG[Phe(3-F)][1Nal]E-NH2)		0.112 ± 0.017	7	0	8	3	Ub Assay 10 μM (β-TrCP1/Skp1): reduces/; Ub Assay 100 μM (β-TrCP1/Skp1): inhibits; Biotin Pulldown Assay 10 μM (βTrCP [2]): reduces/; Biotin Pulldown Assay 100 μM (βTrCP [2]): inhibits
Cc1ccc(S(=O)(=O)N[C@H](CC(=O)O)C(=O)N[C@@H](CCC(=O)O)C(=O)NCC(=O)N[C@@H](Cc2cccc(F)c2)C(=O)N[C@@H](Cc2c[nH]c3ccccc23)C(=O)N(C)[C@@H](CCC(=O)O)C(N)=O)cc1 [UBP032, Ts-dEGF(3F)WE(Me)-NH2] (Tos-[dD]EG[Phe(3-F)]W[NMeE]-NH2)			0	0	10	4	Ub Assay 100 μM (β-TrCP1/Skp1): inhibits; Biotin Pulldown Assay 100 μM (βTrCP [2]): inhibits
NC(=O)[C@H](CCC(=O)O)NC(=O)[C@H](Cc1c[nH]c2ccccc12)NC(=O)[C@H](Cc1cccc(F)c1)NC(=O)CNC(=O)[C@H](CCC(=O)O)NC(=O)[C@@H](CC(=O)O)NS(=O)(=O)c1ccc(Cl)cc1Cl [UBP048, 2,4-(Cl)2-PhSO2-dEGF(3F)WE-NH2] (X4-[dD]EG[Phe(3-F)]WE-NH2)							Ki (βTrCP [1]; FP dose-response): 27 nM

Now from value to molecule, other results behind:

IC50 (βTrCP [1]; [4]) [µM]	SMILES	IC50 (βTrCP [1]; [3]) [µM]	inhibition at 100 µM (Skp2) [%]	inhibition at 10 µM (Skp2) [%]	inhibition at 100 µM (FBW7/Skp1) [%]	inhibition at 10 µM (FBW7/Skp1) [%]	also measured
> 100	CC[C@H](C)[C@H](NC(=O)CNC(=O)[C@H](CCC(=O)O)NC(=O)CCC(=O)O)C(=O)N[C@@H](Cc1ccccc1)C(=O)N[C@@H](CCC(=O)O)C(N)=O [Suc-EGIFE-NH2] (Suc-EGIFE-NH2)						
91	NC(=O)[C@H](Cc1cccc(F)c1)NC(=O)[C@H](Cc1ccc(O)cc1)NC(=O)CNC(=O)[C@H](CCC(=O)O)NC(=O)CCC(=O)O [Suc-EGY-F(3F)-NH2] (Suc-EGY[Phe(3-F)]-NH2)						
71	NC(=O)[C@H](Cc1ccc(F)cc1)NC(=O)[C@H](Cc1ccc(O)cc1)NC(=O)CNC(=O)[C@H](CCC(=O)O)NC(=O)CCC(=O)O [Suc-EGY-F(4F)-NH2] (Suc-EGY[Phe(4-F)]-NH2)						
91	NC(=O)[C@H](Cc1ccc([N+](=O)[O-])cc1)NC(=O)[C@H](Cc1ccc(O)cc1)NC(=O)CNC(=O)[C@H](CCC(=O)O)NC(=O)CCC(=O)O [Suc-EGY-F(4NO2)-NH2] (Suc-EGY[Phe(4-NO2)]-NH2)						
10.7	NC(=O)CC[C@H](NC(=O)CCC(=O)O)C(=O)NCC(=O)N[C@@H](Cc1ccc(O)cc1)C(=O)N[C@@H](Cc1ccccc1)C(=O)N[C@@H](CCC(=O)O)C(N)=O [Suc-QGYFE-NH2]						
> 100	CC[C@H](C)[C@H](NC(=O)CNC(=O)[C@H](COP(=O)(O)O)NC(=O)[C@H](CC(=O)O)NC(=O)[C@@H](N)C(C)C)C(=O)N[C@@H](Cc1c[nH]cn1)C(=O)N[C@@H](CO)C(N)=O [VD-pS-GIHS-NH2] (H-VD[pS]GIHS-NH2)						
